How the values were obtained:
[1] = Half life in human liver microsomes; type: ADME, Microsome
[2] = target: T1, Nuclear receptor ROR-beta (Homo sapiens, UniProt Q92753); assay: Activity at RORbeta (unknown origin)
T1 sequence (Q92753 whole entry): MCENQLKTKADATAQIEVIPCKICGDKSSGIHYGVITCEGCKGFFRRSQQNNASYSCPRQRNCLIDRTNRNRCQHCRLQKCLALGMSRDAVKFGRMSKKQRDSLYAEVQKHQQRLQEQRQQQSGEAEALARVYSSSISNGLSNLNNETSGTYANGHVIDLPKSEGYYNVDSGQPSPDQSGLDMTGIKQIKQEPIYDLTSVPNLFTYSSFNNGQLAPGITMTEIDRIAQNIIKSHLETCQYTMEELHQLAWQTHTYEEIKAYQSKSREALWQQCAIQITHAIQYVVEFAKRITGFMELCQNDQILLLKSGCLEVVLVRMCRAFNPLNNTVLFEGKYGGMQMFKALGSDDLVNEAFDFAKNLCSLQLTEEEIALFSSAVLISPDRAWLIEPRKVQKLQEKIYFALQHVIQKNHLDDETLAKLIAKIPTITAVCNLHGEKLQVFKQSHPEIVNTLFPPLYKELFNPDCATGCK

[3] = target: T1, Nuclear receptor ROR-beta; assay: Agonist activity at RORbeta (unknown origin) by Gal4-Luc reporter gene assay
[4] = target: T2, Oxysterols receptor LXR-alpha (Homo sapiens, UniProt Q13133); assay: Agonist activity at LXRalpha (unknown origin) by Gal4-Luc reporter gene assay
T2 sequence (Q13133 whole entry): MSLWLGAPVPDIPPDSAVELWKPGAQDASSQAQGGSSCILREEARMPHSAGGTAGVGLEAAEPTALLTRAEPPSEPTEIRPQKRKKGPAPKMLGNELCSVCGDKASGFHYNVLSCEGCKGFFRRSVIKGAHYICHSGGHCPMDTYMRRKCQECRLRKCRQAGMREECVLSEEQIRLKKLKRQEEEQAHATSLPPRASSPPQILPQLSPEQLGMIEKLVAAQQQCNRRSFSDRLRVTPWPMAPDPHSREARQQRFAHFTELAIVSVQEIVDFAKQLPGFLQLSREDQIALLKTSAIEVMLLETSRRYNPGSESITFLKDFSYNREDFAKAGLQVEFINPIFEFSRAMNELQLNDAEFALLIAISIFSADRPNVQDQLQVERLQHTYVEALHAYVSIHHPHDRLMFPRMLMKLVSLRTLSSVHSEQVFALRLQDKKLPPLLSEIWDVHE

Cytochrome P450 2C8 = target: T3, Cytochrome P450 2C8 (Homo sapiens, UniProt P10632); assay: Inhibition of recombinant CYP2C8 (unknown origin); type: ADME
T3 sequence (P10632 whole entry): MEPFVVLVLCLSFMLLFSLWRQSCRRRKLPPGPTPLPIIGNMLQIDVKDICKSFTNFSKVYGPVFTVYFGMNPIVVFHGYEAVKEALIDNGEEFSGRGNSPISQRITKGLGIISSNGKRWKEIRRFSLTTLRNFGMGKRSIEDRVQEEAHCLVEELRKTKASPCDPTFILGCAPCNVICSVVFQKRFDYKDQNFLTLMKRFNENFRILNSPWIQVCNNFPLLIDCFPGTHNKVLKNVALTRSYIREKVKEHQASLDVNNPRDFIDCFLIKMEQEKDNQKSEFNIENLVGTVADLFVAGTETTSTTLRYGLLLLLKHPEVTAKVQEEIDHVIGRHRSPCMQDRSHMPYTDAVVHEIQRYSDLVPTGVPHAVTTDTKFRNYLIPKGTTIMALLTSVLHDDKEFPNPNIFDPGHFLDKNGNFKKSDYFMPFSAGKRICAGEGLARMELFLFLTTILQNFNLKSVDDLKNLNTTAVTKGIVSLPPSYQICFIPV

Mus musculus [5] = assay: Suppression of IL-17F production in mouse stimulated at time -24 hrs with IL-2 and at time 0, 7, and 24 hrs with IL-2/IL-23 mixture dosed with compound at 0 and 24 hrs and measured at 30 hrs
Mus musculus [6] = assay: Suppression of IL-22 RNA expression in skin region of mouse model of IL-23 induced acanthosis model of psoriasis at 3 to 30 mg/kg, po BID for 10 days measured every other day; type: functional
[7] = Total AUC in rat at 4 mg/kg, po; type: ADME, organism-based; design: dose 4 mg/kg, route oral, time AUCmax; conditions: in vivo
[8] = Total AUC in dog at 1 mg/kg, po; type: ADME, organism-based, Canis lupus familiaris; design: dose 1 mg/kg, route oral, time AUCmax; conditions: in vivo
[9] = Clearance in mouse at 2 mg/kg, iv; type: ADME, organism-based; conditions: in vivo
Mus musculus [10] = assay: Suppression of ear thickness in mouse model of IL-23 induced acanthosis model of psoriasis at 10 mg/kg, po BID for 10 days measured every other day relative to control; type: functional; conditions: 240 h
Mus musculus [11] = assay: Suppression of ear thickness in mouse model of IL-23 induced acanthosis model of psoriasis at 30 mg/kg, po BID for 10 days measured every other day relative to control; type: functional; conditions: 240 h
Mus musculus [12] = assay: Suppression of ear thickness in mouse model of IL-23 induced acanthosis model of psoriasis at 3 mg/kg, po BID for 10 days measured every other day relative to anti-IL-23 positive control; type: functional
Mus musculus [13] = assay: Suppression of ear thickness in mouse model of IL-23 induced acanthosis model of psoriasis at 30 mg/kg, po BID for 10 days measured every other day relative to anti-IL-23 positive control; type: functional
Mus musculus [14] = assay: Suppression of IL-22 RNA expression in skin region of mouse model of IL-23 induced acanthosis model of psoriasis at 3 mg/kg, po BID for 10 days measured every other day relative to control; type: functional; conditions: 240 h

O=C(N1CC[C@@]2(S(=O)(=O)c3ccc(F)cc3)c3ccc(C(F)(C(F)(F)F)C(F)(F)F)cc3CC[C@@H]12)C1(O)CCS(=O)(=O)CC1
half-life [1]: > 120 min
IC50 [2]: > 10 µM
EC50 [3]: > 10 µM
EC50 [4]: > 7.5 µM
IC50 (Cytochrome P450 2C8): 15 µM
EC50 (Mus musculus [5]): 88 nM
Activity (Mus musculus [6]): Dose-dependent effect
ED50 (Mus musculus [6]; 240 h): 3 mg/kg
AUC [7]: 17 µM·h
AUC [8]: 78 µM·h
clearance [9]: 1.9 mL/min/kg
inhibition in vivo at 10 mg/kg (Mus musculus [10]): 51%
inhibition in vivo at 30 mg/kg (Mus musculus [11]): 57%
Efficacy (Mus musculus [12]): 48%
Efficacy (Mus musculus [13]): 98%
inhibition in vivo at 3 mg/kg (Mus musculus [14]): 76%
